{
  "source": "paper PMC10507085",
  "about": "“Pharmacological inhibition of TBK1/IKKε blunts immunopathology in a murine model of SARS-CoV-2 infection” (Nature Communications, 2023)",
  "assay_in_all_cases": "biochemical",
  "set-up_in_all_cases": "KINOMEscan competition binding, DNA-tagged kinase against immobilised ligand, qPCR read-out",
  "conditions_in_all_cases": "read-out: Percent Control",
  "key": {"[1]": {"target": "ACVR1 (Homo sapiens, UniProt Q04771)"}, "[2]": {"target": "BRSK1 (Homo sapiens, UniProt Q8TDC3)", "sequence (Q8TDC3 whole entry)": "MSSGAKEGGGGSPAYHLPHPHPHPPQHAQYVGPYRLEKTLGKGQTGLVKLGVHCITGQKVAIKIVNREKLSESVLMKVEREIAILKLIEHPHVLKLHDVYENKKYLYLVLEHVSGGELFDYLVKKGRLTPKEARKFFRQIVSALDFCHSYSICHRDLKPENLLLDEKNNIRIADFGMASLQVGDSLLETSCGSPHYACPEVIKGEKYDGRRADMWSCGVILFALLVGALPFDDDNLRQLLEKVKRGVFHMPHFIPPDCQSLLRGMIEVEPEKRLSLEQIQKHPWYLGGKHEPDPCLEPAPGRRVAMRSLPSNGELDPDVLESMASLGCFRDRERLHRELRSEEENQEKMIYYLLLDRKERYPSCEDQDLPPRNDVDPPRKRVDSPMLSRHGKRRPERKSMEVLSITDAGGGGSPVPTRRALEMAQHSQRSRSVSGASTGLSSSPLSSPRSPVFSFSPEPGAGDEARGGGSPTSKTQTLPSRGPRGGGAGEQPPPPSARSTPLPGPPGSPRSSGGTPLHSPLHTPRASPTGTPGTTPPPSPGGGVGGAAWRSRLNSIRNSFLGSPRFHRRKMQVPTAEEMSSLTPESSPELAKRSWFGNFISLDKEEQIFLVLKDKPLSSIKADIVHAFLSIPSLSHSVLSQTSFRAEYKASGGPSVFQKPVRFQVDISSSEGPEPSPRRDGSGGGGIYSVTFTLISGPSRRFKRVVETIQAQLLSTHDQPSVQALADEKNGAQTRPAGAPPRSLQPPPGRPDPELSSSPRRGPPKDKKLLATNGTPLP"}, "[3]": {"target": "CAMKK1 (Homo sapiens, UniProt Q8N5S9)"}, "[4]": {"target": "EPHA1 (Homo sapiens, UniProt P21709)", "sequence (P21709 whole entry)": "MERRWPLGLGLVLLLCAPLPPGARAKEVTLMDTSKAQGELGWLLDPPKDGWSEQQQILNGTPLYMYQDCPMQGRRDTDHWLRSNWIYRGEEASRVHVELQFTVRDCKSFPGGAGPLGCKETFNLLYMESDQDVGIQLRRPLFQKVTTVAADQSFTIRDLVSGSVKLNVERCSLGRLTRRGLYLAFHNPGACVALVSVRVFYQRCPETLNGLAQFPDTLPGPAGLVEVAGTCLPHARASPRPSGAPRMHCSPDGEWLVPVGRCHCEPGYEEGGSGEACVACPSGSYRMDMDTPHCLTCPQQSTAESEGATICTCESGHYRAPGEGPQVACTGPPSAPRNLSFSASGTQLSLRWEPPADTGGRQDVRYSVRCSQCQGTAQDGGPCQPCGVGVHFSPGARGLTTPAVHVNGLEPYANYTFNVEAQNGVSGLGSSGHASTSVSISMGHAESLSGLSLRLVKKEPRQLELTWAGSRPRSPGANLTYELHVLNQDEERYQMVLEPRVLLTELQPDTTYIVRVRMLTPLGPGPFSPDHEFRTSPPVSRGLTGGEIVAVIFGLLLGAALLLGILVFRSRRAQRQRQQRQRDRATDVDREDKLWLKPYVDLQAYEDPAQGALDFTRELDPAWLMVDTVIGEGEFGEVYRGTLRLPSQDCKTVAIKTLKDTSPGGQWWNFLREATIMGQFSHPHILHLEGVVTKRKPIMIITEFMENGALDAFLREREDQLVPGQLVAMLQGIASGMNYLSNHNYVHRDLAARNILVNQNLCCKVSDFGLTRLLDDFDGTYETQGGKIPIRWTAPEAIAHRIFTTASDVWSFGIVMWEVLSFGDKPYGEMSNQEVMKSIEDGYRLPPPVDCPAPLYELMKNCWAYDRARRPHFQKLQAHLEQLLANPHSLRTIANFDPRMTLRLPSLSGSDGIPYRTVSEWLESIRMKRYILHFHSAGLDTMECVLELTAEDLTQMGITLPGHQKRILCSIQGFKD"}, "[5]": {"target": "EPHA4 (Homo sapiens, UniProt P54764)"}, "[6]": {"target": "GSK3B (Homo sapiens, UniProt P49841)"}, "[7]": {"target": "HIPK2 (Homo sapiens, UniProt Q9H2X6)"}, "[8]": {"target": "IKBKB (Homo sapiens, UniProt O14920)"}, "[9]": {"target": "MAP3K1 (Homo sapiens, UniProt Q13233)"}, "[10]": {"target": "MAP3K5 (Homo sapiens, UniProt Q99683)"}, "[11]": {"target": "MARK2 (Homo sapiens, UniProt Q7KZI7)"}, "[12]": {"target": "T1, MGC42105 (Homo sapiens, UniProt Q8IY84)", "T1 construct": "gene NIM1K", "T1 sequence (Q8IY84 whole entry)": "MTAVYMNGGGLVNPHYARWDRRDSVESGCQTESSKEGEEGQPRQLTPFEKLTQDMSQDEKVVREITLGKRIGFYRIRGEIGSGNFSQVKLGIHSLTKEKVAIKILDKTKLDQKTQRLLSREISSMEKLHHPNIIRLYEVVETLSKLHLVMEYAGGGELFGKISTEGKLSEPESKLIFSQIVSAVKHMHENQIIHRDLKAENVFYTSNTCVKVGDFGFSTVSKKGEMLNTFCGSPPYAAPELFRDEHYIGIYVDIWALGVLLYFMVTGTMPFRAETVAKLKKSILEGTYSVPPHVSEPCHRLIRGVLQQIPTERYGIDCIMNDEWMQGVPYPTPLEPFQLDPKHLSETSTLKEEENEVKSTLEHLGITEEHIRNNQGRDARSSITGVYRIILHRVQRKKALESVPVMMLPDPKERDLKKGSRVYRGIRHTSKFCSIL"}, "[13]": {"target": "MUSK (Homo sapiens, UniProt O15146)"}, "[14]": {"target": "PAK1 (Homo sapiens, UniProt Q13153)"}, "[15]": {"target": "T2, RSK4(Kin.Dom.1-N-terminal) (Homo sapiens, UniProt Q9UK32)", "T2 construct": "gene RPS6KA6; Kin.Dom.1 N-terminal", "T2 sequence (Q9UK32 whole entry)": "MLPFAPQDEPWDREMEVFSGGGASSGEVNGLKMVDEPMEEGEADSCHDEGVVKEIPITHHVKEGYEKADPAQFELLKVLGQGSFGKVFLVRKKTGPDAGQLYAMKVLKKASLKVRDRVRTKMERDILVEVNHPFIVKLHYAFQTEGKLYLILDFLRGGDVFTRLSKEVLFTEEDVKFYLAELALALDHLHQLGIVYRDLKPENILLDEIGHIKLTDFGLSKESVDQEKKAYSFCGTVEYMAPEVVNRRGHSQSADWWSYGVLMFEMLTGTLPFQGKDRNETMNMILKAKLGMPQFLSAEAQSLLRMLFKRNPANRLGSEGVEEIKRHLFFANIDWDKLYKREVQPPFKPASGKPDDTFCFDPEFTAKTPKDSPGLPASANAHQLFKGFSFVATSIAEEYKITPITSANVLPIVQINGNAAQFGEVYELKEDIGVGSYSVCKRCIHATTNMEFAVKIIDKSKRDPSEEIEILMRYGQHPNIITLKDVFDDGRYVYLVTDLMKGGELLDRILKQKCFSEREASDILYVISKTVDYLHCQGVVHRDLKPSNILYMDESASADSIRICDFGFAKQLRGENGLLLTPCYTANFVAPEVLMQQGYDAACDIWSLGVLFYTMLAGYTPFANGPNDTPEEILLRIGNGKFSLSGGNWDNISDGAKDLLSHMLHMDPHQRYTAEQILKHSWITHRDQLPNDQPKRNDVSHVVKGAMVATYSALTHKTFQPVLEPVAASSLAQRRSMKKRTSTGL"}, "[16]": {"target": "SGK3 (Homo sapiens, UniProt Q96BR1)"}, "[17]": {"target": "STK10 (Homo sapiens, UniProt O94804)"}, "[18]": {"target": "STK32A (Homo sapiens, UniProt Q8WU08)", "sequence (Q8WU08 whole entry)": "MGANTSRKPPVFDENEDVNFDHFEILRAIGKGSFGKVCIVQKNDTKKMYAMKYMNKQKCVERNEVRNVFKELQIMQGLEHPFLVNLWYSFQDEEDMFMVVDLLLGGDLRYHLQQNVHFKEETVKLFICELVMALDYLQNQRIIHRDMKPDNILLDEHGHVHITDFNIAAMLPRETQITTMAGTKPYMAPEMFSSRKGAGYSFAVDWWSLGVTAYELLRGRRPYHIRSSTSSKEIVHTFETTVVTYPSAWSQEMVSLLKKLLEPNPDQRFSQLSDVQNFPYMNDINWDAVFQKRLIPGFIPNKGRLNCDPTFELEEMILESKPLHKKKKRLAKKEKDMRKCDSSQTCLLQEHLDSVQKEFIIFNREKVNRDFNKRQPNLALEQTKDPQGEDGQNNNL"}, "[19]": {"target": "STK32C (Homo sapiens, UniProt Q86UX6)", "sequence (Q86UX6 whole entry)": "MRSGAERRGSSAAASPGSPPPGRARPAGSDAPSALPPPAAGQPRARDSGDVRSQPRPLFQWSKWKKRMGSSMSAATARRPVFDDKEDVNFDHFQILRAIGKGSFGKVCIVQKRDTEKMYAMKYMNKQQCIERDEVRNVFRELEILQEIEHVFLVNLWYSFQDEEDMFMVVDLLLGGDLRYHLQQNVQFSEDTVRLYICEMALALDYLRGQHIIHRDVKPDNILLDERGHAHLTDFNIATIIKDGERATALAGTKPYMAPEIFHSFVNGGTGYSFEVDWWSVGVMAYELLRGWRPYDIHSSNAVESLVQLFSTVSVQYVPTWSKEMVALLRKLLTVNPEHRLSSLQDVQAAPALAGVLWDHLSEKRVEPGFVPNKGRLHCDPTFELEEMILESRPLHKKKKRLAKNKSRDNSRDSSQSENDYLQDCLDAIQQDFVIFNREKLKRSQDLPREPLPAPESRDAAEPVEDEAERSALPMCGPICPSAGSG"}, "[20]": {"target": "WNK4 (Homo sapiens, UniProt Q96J92)", "sequence (Q96J92 whole entry)": "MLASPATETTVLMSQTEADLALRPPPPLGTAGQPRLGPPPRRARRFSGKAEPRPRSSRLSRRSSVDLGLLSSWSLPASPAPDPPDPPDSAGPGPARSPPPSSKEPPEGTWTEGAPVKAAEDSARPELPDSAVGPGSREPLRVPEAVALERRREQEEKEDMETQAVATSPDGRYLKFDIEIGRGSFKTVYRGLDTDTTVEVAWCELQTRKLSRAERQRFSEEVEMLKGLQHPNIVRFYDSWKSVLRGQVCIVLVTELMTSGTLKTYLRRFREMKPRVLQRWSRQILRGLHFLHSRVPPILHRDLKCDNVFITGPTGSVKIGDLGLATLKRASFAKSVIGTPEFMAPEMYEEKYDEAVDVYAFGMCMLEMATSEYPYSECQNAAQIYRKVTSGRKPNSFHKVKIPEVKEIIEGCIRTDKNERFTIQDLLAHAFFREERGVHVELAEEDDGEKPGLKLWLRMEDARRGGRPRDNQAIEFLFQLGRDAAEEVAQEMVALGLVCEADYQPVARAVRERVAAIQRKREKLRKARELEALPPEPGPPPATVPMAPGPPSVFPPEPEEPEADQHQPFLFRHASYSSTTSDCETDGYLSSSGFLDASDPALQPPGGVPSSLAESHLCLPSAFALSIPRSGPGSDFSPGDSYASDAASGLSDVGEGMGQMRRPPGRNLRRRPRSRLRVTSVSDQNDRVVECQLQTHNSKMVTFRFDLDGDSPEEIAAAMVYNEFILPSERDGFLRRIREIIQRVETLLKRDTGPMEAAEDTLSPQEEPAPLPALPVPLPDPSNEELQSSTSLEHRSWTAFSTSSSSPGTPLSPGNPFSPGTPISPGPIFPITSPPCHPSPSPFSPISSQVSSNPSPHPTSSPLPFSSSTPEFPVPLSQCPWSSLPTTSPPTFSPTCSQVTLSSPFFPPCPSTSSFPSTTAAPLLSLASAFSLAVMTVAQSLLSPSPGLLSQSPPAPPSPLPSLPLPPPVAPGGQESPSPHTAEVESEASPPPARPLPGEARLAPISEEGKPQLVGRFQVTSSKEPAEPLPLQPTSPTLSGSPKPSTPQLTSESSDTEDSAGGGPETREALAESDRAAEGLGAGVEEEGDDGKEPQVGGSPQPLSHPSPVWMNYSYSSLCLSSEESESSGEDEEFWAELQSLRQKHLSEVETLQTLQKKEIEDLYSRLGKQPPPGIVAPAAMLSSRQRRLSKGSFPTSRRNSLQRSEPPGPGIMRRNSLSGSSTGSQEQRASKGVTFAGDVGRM"}},
  "data": [
    {"smiles": "Oc1ccc(C2=Cc3ccc(O)cc3OC2)cc1", "note": "[compound 1, idronoxil]", "values": [
      {"measurement": "remaining binding at 10 µM", "setting": "[1]", "result": 74, "unit": "%"},
      {"measurement": "remaining binding at 10 µM", "setting": "[2]", "result": 76, "unit": "%"},
      {"measurement": "remaining binding at 10 µM", "setting": "[3]", "result": 78, "unit": "%"},
      {"measurement": "remaining binding at 10 µM", "setting": "[4]", "result": 69, "unit": "%"},
      {"measurement": "remaining binding at 10 µM", "setting": "[5]", "result": 84, "unit": "%"},
      {"measurement": "remaining binding at 10 µM", "setting": "[6]", "result": 92, "unit": "%"},
      {"measurement": "remaining binding at 10 µM", "setting": "[7]", "result": 47, "unit": "%"},
      {"measurement": "remaining binding at 10 µM", "setting": "[8]", "result": 73, "unit": "%"},
      {"measurement": "remaining binding at 10 µM", "setting": "[9]", "result": 76, "unit": "%"},
      {"measurement": "remaining binding at 10 µM", "setting": "[10]", "result": 92, "unit": "%"},
      {"measurement": "remaining binding at 10 µM", "setting": "[11]", "result": 84, "unit": "%"},
      {"measurement": "remaining binding at 10 µM", "setting": "[12]", "result": 93, "unit": "%"},
      {"measurement": "remaining binding at 10 µM", "setting": "[13]", "result": 89, "unit": "%"},
      {"measurement": "remaining binding at 10 µM", "setting": "[14]", "result": 60, "unit": "%"},
      {"measurement": "remaining binding at 10 µM", "setting": "[15]", "result": 94, "unit": "%"},
      {"measurement": "remaining binding at 10 µM", "setting": "[16]", "result": 49, "unit": "%"},
      {"measurement": "remaining binding at 10 µM", "setting": "[17]", "result": 100, "unit": "%"},
      {"measurement": "remaining binding at 10 µM", "setting": "[18]", "result": 94, "unit": "%"},
      {"measurement": "remaining binding at 10 µM", "setting": "[19]", "result": 54, "unit": "%"},
      {"measurement": "remaining binding at 10 µM", "setting": "[20]", "result": 95, "unit": "%"}
    ]}
  ]
}
